20 molecules from ChEMBL document CHEMBL1201862, “PubChem BioAssay data set” (2004) can be followed below.

Activity calls are given as the source filed them. A value given as a limit tells only on which side of the number the result lay.

Test [1] has as its target Eukaryotic translation initiation factor 4E (Mus musculus, UniProt P63073). The test is described as follows: eIF4E–eIF4G protein interaction inhibitors, dose response, biochemical, TR-FRET (AID 855).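 Note: potency for disrupting eIF4E binding to eIF4GI seen as loss of FRET.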 The format is functional. Background: Time-resolved FRET reads energy transfer from a long-lived donor to a nearby acceptor.
In test [2] the target is Voltage-dependent T-type calcium channel subunit alpha-1H (Homo sapiens, UniProt O95180). Format: functional.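 Note: channel activity triggered by adding a high calcium stimulation buffer.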
Chain of Voltage-dependent T-type calcium channel subunit alpha-1H (O95180 whole entry): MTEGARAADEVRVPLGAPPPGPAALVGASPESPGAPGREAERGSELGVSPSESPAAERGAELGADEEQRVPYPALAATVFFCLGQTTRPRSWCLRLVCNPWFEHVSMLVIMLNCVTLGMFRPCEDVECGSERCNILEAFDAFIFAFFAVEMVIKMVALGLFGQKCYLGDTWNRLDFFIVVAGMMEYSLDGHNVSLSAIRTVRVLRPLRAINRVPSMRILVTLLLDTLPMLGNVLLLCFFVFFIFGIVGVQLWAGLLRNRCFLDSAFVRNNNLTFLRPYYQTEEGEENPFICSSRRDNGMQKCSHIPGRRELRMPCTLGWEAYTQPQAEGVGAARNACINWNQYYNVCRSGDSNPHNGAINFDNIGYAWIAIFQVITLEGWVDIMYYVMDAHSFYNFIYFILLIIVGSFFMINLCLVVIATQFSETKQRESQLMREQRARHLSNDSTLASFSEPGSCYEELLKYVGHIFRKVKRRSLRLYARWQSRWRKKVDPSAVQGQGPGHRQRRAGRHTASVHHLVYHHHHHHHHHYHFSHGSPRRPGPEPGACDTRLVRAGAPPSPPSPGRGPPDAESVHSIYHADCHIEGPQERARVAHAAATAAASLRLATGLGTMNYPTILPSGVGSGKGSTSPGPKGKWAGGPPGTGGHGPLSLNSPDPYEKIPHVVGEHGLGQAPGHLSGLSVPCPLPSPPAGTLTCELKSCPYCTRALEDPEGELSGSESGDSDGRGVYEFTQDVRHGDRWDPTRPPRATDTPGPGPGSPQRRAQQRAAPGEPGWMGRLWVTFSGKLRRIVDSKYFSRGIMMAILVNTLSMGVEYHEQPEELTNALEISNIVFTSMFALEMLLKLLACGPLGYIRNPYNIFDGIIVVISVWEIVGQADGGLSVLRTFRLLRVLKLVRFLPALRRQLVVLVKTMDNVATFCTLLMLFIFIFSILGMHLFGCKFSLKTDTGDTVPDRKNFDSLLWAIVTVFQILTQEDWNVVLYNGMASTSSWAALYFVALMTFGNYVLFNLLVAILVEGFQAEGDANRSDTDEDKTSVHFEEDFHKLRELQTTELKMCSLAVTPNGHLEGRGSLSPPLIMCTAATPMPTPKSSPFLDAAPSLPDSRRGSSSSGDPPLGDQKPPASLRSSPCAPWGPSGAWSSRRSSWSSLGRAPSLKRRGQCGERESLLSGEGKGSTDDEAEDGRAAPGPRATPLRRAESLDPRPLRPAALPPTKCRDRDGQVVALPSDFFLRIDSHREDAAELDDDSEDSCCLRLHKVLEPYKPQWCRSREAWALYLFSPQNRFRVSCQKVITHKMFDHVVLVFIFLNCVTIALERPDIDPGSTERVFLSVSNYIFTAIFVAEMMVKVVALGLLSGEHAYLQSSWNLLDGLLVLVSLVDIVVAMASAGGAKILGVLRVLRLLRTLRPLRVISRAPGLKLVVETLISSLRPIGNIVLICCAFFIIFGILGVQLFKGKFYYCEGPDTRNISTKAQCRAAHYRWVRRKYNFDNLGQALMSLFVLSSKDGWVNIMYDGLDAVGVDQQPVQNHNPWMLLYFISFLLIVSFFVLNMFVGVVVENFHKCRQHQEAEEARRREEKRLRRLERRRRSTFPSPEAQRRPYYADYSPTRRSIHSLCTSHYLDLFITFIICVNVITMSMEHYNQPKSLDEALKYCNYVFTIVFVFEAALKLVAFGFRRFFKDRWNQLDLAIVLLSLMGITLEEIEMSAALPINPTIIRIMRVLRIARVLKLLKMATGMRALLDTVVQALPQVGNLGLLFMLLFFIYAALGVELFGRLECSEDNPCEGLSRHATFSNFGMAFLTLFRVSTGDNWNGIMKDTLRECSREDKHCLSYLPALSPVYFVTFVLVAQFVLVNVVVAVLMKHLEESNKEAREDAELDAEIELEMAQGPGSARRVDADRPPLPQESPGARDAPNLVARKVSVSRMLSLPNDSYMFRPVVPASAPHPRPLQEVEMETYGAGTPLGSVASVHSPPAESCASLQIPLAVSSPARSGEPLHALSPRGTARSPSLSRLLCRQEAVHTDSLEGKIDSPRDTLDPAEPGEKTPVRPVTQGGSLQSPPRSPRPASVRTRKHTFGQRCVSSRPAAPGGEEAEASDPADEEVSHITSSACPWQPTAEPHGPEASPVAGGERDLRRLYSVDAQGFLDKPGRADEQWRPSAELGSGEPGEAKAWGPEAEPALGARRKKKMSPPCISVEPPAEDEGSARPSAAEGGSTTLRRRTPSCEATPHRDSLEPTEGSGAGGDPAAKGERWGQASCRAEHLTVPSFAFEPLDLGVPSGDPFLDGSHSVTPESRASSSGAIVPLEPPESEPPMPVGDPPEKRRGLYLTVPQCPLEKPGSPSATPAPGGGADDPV
Test [3] in a line: A cytotoxicity screen of small molecule inhibitors of the PhoP region in Salmonella typhi identified in the primary screen. [Related pubchem assays: 1850, 1864, 1985 ]. Format: functional.
Another test concerns the target Cytochrome P450 3A4 (Homo sapiens, UniProt P08684). Particulars: Potency.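 Note: confirmatory qHTS run detecting inhibitors and substrates of CYP3A4.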
The nature of test [4]: CRF-BP/CRF-R2 complex antagonists, dose response, cell-based, uHTS hits, 384-well (AID 651639). The format is functional, Homo sapiens. Particulars: read-out: IC50_Mean.
Test [5] addresses T1, Corticotropin-releasing factor receptor 2/Corticotropin-releasing factor-binding protein (Homo sapiens, UniProt P24387+Q13324).
T1 sequence (Q13324 whole entry): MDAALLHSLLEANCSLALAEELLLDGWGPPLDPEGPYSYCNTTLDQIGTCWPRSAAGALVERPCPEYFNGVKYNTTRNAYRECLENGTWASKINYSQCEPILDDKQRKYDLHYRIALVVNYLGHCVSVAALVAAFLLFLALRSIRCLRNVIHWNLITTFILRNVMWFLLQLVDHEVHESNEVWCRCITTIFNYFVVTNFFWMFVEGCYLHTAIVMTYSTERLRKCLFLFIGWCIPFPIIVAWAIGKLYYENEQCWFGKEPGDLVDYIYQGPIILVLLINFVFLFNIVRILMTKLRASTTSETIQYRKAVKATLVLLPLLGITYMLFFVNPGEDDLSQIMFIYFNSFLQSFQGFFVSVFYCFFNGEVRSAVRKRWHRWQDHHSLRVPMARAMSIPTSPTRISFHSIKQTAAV
T1 sequence (P24387 whole entry): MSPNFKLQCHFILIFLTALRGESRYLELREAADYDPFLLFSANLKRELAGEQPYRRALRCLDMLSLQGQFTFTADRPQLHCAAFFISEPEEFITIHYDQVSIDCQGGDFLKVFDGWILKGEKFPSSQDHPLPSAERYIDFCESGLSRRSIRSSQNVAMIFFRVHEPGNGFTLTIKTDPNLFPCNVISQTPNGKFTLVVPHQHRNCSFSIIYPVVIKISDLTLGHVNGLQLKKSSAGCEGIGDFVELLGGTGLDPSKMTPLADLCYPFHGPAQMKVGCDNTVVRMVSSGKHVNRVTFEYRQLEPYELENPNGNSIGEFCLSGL
Description: Dose Response confirmation of uHTS hits for small molecule antagonists of the CRF-binding protein and CRF-R2 receptor complex. Particulars: read-out: IC50_Mean. Format: functional.

Another test deals with T2, Aminopeptidase N (Plasmodium falciparum FcB1/Columbia, UniProt O96935).
T2 sequence (O96935 whole entry): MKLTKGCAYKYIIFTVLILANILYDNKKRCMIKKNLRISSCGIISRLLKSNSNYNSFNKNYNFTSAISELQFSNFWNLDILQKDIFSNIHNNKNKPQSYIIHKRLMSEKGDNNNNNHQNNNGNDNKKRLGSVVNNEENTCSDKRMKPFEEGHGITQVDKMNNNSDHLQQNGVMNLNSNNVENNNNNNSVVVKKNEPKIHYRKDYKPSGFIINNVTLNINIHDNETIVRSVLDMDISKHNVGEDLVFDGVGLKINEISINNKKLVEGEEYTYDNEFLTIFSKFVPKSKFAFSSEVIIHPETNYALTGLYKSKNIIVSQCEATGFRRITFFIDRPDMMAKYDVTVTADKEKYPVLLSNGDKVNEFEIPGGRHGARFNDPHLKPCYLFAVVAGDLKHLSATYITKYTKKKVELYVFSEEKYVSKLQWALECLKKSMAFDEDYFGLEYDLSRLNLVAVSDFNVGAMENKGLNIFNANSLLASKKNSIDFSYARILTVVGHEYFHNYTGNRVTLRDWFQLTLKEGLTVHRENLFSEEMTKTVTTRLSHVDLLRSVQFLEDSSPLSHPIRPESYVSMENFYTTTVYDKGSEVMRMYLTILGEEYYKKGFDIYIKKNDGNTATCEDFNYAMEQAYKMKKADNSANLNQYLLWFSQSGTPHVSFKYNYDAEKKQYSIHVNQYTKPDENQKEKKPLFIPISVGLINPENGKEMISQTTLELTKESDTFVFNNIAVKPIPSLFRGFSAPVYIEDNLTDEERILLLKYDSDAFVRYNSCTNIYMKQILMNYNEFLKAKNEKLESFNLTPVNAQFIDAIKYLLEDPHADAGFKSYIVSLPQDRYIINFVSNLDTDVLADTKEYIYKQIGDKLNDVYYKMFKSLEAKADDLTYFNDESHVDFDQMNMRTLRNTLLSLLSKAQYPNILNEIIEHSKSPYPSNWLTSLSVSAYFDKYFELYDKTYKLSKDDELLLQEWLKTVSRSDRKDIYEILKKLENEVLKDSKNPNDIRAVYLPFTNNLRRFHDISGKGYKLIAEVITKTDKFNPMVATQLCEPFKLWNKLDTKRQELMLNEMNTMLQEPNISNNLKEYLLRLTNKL
The test is described as follows: P. falciparum M1AAP inhibitors, biochemical, fluorogenic H-Leu-NHMec substrate, 1536-well (AID 1445). Also on record: species or system Plasmodium falciparum 3D7, 3D7.

The target of test [6] is T1, Corticotropin-releasing factor receptor 2/Corticotropin-releasing factor-binding protein. The test is described as follows: activators of CRF receptor 2 with binding protein – uHTS hits, confirmation (AID 602473). The format is functional. Particulars: read-out: EC50_Mean.
Test [7] has as its target T3, Short transient receptor potential channel 4 (Mus musculus, UniProt Q9QUQ5).
T3 sequence (Q9QUQ5 whole entry): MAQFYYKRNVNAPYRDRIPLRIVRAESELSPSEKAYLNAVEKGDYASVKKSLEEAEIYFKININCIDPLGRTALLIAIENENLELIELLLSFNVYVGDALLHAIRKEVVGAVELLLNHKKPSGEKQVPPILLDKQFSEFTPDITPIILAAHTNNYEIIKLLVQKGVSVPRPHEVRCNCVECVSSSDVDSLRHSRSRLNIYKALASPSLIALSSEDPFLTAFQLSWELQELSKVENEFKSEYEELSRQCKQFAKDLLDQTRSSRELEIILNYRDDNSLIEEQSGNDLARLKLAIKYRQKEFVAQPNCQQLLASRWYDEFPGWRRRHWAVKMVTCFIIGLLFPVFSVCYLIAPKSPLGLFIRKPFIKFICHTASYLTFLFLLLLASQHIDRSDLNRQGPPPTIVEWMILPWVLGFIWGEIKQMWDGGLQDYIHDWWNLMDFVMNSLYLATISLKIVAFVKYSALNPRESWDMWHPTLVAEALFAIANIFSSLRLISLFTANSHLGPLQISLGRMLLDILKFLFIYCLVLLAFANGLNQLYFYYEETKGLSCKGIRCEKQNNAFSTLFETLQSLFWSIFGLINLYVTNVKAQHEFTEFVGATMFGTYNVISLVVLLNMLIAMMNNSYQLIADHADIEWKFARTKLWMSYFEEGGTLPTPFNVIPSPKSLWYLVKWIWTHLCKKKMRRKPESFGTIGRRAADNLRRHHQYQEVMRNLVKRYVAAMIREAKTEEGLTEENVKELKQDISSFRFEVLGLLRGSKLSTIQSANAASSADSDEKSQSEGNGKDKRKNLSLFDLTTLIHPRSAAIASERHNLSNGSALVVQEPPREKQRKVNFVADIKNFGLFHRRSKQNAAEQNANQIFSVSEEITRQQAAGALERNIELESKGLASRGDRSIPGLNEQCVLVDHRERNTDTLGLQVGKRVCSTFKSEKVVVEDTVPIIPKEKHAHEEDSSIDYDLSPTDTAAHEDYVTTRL
The test is described as follows: mouse TRPC4 channel activators, dose response, cell-based, HEK293 TRPC4/mu-opioid, Fluo-4 calcium (AID 434937). Format: functional.

For a further test, the system named is Vero. The test is described as follows: cells. Format: functional. The settings on record: Chlorocebus sabaeus.
The nature of test [8]: human group III sPLA2 inhibitors, dose response, biochemical, QFRET, IC50 (AID 743457).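 Note: green fluorescence rise as the enzyme cleaves BODIPY PC-A2 in liposomes; potency for inhibition of the enzyme.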
A short description of test [9]: growth suppression of PTEN-null colon cells, dose response, cell-based, HCT116 PTEN knockout (AID 1047).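 Note: HCT116 colon tumor cells with PTEN knocked out; cells exposed to compound for 60 hours before readout; potency for loss of cell viability measured by luminescence.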 Format: functional.
Test [10] is described as follows: growth suppression of beta-catenin-knockout colon cells, dose response, cell-based, HCT116, human colon tumor (AID 1045).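 Note: HCT116 colon tumor cells with beta catenin knocked out; cells exposed to compound for 60 hours.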 Format: functional.
Test [11] is described as follows: inhibitors of firefly luciferase expression or activity, dose response, H4 neuroglioma cells, luminescence (AID 1990). Format: functional, cell-based.
Test [12] can be described thus: inhibitors of SNCA 5'UTR-driven reporter translation, confirmation, H4 neuroglioma cells, luminescence (AID 1988). Format: functional, cell-based.
Test [13] can be described thus: Luminescence Cell-Based Dose Response HTS to Identify Inhibitors of 5'UTR Stem-Loop Driven Prion Protein mRNA Translation in H4 Neuroglioblastoma Cells. [Related pubchem assays: 1827 (Project Summary), 1813 (Primary HTS)]. The format is functional.
Test [14] can be described thus: cytotoxicity in HEK-293T cells, dose response, cytotoxicity control for TCR NF-kB inhibitor project, luminescence, T-cell screen hits (AID 489026).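 Note: cells exposed to compound about 14 hours before the viability readout.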 The format is functional, cell-based.
The subject of the next test is Streptococcus. The test is described as follows: Group A Streptococcus viability loss, dose response, counter-screen for streptokinase expression inhibitor project, luminescence, BacTiterGlo (AID 1915).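 Note: potency for reduction of bacterial viability or growth.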 The format is functional, organism-based.
Test [15] has as its system Streptococcus sp. 'group A'. The test is described as follows: growth inhibition of control SK(-) GAS strain, dose response, counter-screen for streptokinase expression inhibitor project, luminescence, kanamycin, BacTiterGlo, confirmation (AID 1900). Format: functional, organism-based. In general terms: Counterscreens check selectivity or assay interference.

Chain of Cytochrome P450 3A4 (P08684 whole entry): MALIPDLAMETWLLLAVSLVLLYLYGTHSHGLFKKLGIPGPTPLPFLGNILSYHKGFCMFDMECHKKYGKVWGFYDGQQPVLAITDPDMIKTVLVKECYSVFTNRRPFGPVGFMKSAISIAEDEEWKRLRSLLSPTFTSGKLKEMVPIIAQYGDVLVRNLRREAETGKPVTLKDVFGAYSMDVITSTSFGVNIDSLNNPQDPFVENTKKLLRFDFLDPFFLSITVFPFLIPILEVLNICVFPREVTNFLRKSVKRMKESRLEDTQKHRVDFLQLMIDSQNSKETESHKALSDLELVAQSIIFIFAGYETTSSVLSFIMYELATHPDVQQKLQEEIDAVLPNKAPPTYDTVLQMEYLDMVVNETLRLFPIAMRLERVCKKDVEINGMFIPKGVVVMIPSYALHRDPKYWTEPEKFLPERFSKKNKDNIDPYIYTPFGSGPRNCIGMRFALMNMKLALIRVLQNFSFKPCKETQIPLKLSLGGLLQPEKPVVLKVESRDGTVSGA
Chain of Eukaryotic translation initiation factor 4E (P63073 whole entry): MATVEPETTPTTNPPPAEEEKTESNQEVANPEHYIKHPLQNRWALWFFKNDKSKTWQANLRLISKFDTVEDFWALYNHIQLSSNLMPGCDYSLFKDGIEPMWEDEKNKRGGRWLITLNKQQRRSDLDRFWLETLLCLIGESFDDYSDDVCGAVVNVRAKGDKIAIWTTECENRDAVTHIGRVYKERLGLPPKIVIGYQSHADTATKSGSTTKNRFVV

Consider `Cc1cc(C)n(-c2nnc3n2N=C(c2ccccc2)CS3)n1`, for which the IC50 in [1] was > 64 µM (inactive).

Consider `c1ccc2sc(N3CN(CCN4CCOCC4)CN(c4nc5ccccc5s4)C3)nc2c1`, for which the EC50 in test [2] is 5.23 µM (active); in [3] it was > 50 µM (active).

In the case of `Cc1ccc(-c2nnn(C(C)C(=O)N3c4ccccc4CCc4ccccc43)n2)cc1` (stereo unspecified), in test [2], the EC50 is 7.47 µM (active).

As to `CC1(C(=O)NCCN2CCOCC2)C=CCN1C(=O)c1ccccc1` (stereo unspecified), at Cytochrome P450 3A4, the AC50 was 25.1 µM (inconclusive).

`CC(C)N1C(=O)S/C(=C/c2ccccc2OCc2ccc(C(=O)O)cc2)C1=O`: the IC50 is > 20 µM (inactive) in [4], 25.5 µM (active) in test [5] and 38.1 µM (active) on Aminopeptidase N. The EC50 in test [6] is > 53 µM (inactive).

Consider `O=C(NNC(=S)NC(=O)c1ccccc1Cl)c1cccc([N+](=O)[O-])c1`, for which the EC50 is 5.96 µM (active) in [7] and 11.2 µM (active) in test [6]. For the same molecule, the CC50 with Vero was > 25 µM (active). The IC50 in test [8] is 22.3 µM (inactive).

`COc1ccc(O)c(/C=C(\C#N)C(=O)Nc2cccnc2)c1`: the IC50 in test [1] is > 64 µM (inactive).

As for `CCN(CC)S(=O)(=O)c1cc(C(=O)Nc2ccc(Cl)cn2)ccc1C`, in test [2], the EC50 is 2.3 µM (active).

Take `Cc1ccc(-n2c(Cc3cccn3C)nnc2SCC(=O)Nc2ccc3c(c2)OCO3)cc1`: in test [2], the EC50 is 1.25 µM (active).

With `CCOC(=O)c1c(CSC(=N)N)n(-c2ccc(Br)cc2)c2cc(Br)c(OC(C)=O)cc12`, the IC50 in [1] is > 64 µM (inactive). Also, the EC50 in test [9] was 16.1 µM (active); in [10], 14.3 µM (active).

Take `Cc1sc(NC(=O)Cn2nc(C(F)(F)F)cc2C)c(C(=O)OC(C)C)c1C`: in test [1], the IC50 was > 64 µM (inactive).

Take `Cc1oc(-c2ccccc2Cl)nc1C[S+]([O-])CC(=O)NCCCN1CC(C)CC(C)C1` (stereo unspecified): the EC50 in test [7] is 0.299 µM (active).

Consider `CCCN(CCC)CCCNC(=O)c1ccc2c(Cl)c3c(nc2c1)CCC3`, for which, in test [7], the EC50 was 0.0107 µM (active).

`CCOC(=O)c1oc2ccc(OC)cc2c1NC(=O)CN1CCN(C)CC1`: the EC50 in [7] was 1.06 µM (active).

`COc1ccccc1NC(=O)C1=C(C)Nc2nc3ccccc3n2C1c1cccs1` (stereo unspecified): the EC50 in test [11] was 7.89 µM (inconclusive); in test [12], 5.03 µM (active); in test [13] it was 9.88 µM (active). The IC50 in test [14] was > 80 µM (inactive).

Take `Cc1onc(-c2c(F)cccc2Cl)c1C(=O)N1CCN(c2ncc(Br)cn2)CC1`: the EC50 in test [7] was 4.73 µM (active); in [6] it was > 53 µM (inactive). The IC50 in [5] is > 47.1 µM (inactive).

As to `CSCc1nnc(NC(=O)c2ccc(S(=O)(=O)N(CC(C)C)CC(C)C)cc2)o1`, the EC50 is 3.07 µM (active) in test [2], 2.51 µM (active) with Streptococcus and 1.01 µM (active) in [15].

Take `CCCCCCN(C(=O)CCCCCN1C(=O)NC(c2ccc(-c3ccccc3)cc2)C(C(=O)OCc2ccccc2)=C1C)C(C(=O)NCCCC)c1cccc(C(=O)OC)c1` (stereo unspecified): on Cytochrome P450 3A4, the AC50 was 2.51 µM (inconclusive).

As to `C[C@@H]1O[C@@H](O[C@@H]2[C@@H](O)[C@H](OCCc3ccc(O)c(O)c3)O[C@H](CO[C@@H]3O[C@H](CO)[C@@H](O)[C@H](O)[C@H]3O)[C@H]2OC(=O)/C=C/c2ccc(O)c(O)c2)[C@H](O)[C@H](O)[C@H]1O`, the half-maximal activity concentration (AC50) at Cytochrome P450 3A4 was 7.94 µM (inconclusive).

In the case of `C=CCCCCCCCCCCC/C=C/C(O)COC(C)=O` (stereo unspecified) [DEHYDROAVOCATIN-1-ACETATE], the AC50 at Cytochrome P450 3A4 was 39.8 µM (inconclusive).

The term AC50 denotes the midpoint of the concentration-response curve, whichever way the signal moves. What is called CC50 is the concentration giving 50% cytotoxicity.
